Experimental findings from ChEMBL document CHEMBL6177981, “Bardoxolone Derivatives as Novel Pseudo-Natural Necroptosis Inhibitors by Destabilizing HSP90 Client Proteins” (J Med Chem, 2025) are described below.

The source made the active and inactive calls. The rule behind the calls is not given here.

Data set [1] relates to Mus musculus. Description: Anti-necroptotic activity in TNFalpha/Z-VAD-FMK induced SIRS male C57BL/6J mouse model assessed as reduction in IL-1beta in intestine at 5 to 10 mg/kg, po pre-administered with compound via gavage for 2 hrs followed by 180 mg of Z-VAD-FMK stimulation for 15 mins with subsequent TNF-alpha stimulation for 1 hrs and re-current 70 mg of Z-VAD-FMK stimulation and measured after 8 hrs post SIRS induction by ELISA. The format is functional, organism-based. The conditions noted are these: dose 5-10 mg/kg, time 10.0 hrs. (In general: ELISA stands for enzyme-linked immunosorbent assay.)

Data set [2] is described as follows: Acute toxicity in male C57BL/6J mouse assessed as hemorrhage in lung at 2 g/Kg, IG measured after 72 hrs by H and E staining based analysis. Particulars: in vivo, po, 2000 mg/kg. The format is tissue-based.
Data set [3] can be described thus: Acute toxicity in male C57BL/6J mouse assessed as inflammatory cell infiltration in lung at 2 g/Kg, IG measured after 72 hrs by H and E staining based analysis. The format is tissue-based. The conditions noted are these: in vivo, po, 2000 mg/kg.
The subject of data set [4] is HT-29. Description: Downregulation of RIPK3 protein level in human HT-29 cells at 6 uM preincubated with NH4Cl for 2 hrs followed by compound addition and measured after 9 hrs by Western blot analysis. The format is functional, cell-based. For orientation: A western blot detects proteins with antibodies after separation by electrophoresis.
Data set [5] is described as follows: Tmax in Sprague-Dawley rat at 2 mg/kg, iv measured after 24 hrs by LC-MS/MS analysis. The format is ADME, organism-based. The conditions noted are these: in vivo.
In data set [6] the test system is HT-29. Description: Downregulation of RIPK1 protein level in human HT-29 cells at 6 uM preincubated with MG132 for 2 hrs followed by compound addition and measured after 9 hrs by Western blot analysis. The data set is classed as functional, cell-based.
Data set [7] has as its system Mus musculus. The data set is described as follows: Anti-necroptotic activity in TNFalpha/Z-VAD-FMK induced SIRS male C57BL/6J mouse model assessed as reduction in IL-1beta in lung at 5 to 10 mg/kg, po pre-administered with compound via gavage for 2 hrs followed by […] of Z-VAD-FMK stimulation for 15 mins with subsequent TNF-alpha stimulation for 1 hrs and re-current […] of Z-VAD-FMK stimulation and measured after 8 hrs post SIRS induction by ELISA. The data set is classed as functional, organism-based. Particulars: dose 5-10 mg/kg, time 10.0 hrs.

Data set [8] can be described thus: AUC (0 to 24 hrs) in Sprague-Dawley rat at 10 mg/kg, IG measured after 24 hrs by LC-MS/MS analysis. The data set is classed as ADME, organism-based. The conditions noted are these: in vivo, po.
The nature of data set [9]: Acute toxicity in male C57BL/6J mouse assessed as effect on urea level at 2 g/Kg, IG measured after 72 hrs. Particulars: in vivo, po, 2000 mg/kg.
Data set [10] relates to Mus musculus. The data set is described as follows: Anti-necroptotic activity in TNFalpha/Z-VAD-FMK induced SIRS male C57BL/6J mouse model assessed as reduction in IL-1beta in kidney at 5 to 10 mg/kg, po pre-administered with compound via gavage for 2 hrs followed by 180 mg of Z-VAD-FMK stimulation for 15 mins with subsequent TNF-alpha stimulation for 1 hrs and re-current 70 mg of Z-VAD-FMK stimulation and measured after 8 hrs post SIRS induction by ELISA. The conditions noted are these: dose 5-10 mg/kg, time 10.0 hrs. The format is functional, organism-based.

Data set [11] in a line: AUC (0 to 24 hrs) in Sprague-Dawley rat at 2 mg/kg, iv measured after 24 hrs by LC-MS/MS analysis. The format is ADME, organism-based. Particulars: in vivo.
The target of data set [12] is Heat shock protein HSP90 (Homo sapiens) (UniProt P07900+P08238). The data set is described as follows: Inhibition of HSP90 in TSZ-induced human HT-29 cells assessed as reduction in EGFR protein level preincubated with compound followed by Z-VAD-FMK, SM164 and TNFalpha stimulation and measured after 6 hrs by Western blot analysis. The format is cell-based. The conditions noted are these: dose 0.625-10 µM.

Data set [13] deals with T1, Mixed lineage kinase domain-like protein (Homo sapiens) (UniProt Q8NB16).
T1 sequence (whole entry): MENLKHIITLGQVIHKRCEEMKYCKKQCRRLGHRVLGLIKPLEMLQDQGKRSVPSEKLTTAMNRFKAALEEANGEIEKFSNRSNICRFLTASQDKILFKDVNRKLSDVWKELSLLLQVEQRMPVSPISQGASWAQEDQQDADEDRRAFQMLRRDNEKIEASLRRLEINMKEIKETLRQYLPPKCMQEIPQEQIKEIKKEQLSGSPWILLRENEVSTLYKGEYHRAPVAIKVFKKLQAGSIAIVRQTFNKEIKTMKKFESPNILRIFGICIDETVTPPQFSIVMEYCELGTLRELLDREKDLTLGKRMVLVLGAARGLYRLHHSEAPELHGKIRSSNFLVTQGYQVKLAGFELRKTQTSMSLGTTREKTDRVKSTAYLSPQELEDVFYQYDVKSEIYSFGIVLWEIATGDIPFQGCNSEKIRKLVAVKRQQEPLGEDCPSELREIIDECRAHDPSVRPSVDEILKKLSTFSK
Description: Inhibition of MLKL phosphorylation at S358 residue in TSZ-induced human HT-29 cells at 10 uM preincubated with compound followed by Z-VAD-FMK, SM164 and TNFalpha stimulation and measured after 6 hrs by Western blot analysis. The data set is classed as cell-based.

Data set [14] concerns HT-29. The data set is described as follows: Downregulation of MLKL protein level in human HT-29 cells at 6 uM preincubated with Z-VAD-FMK for 2 hrs followed by compound addition and measured after 9 hrs by Western blot analysis. The data set is classed as functional, cell-based.
Data set [15] in a line: Acute toxicity in male C57BL/6J mouse assessed as structural changes in spleen at 2 g/Kg, IG measured after 72 hrs by H and E staining based analysis. The format is tissue-based. The conditions noted are these: in vivo, po, 2000 mg/kg.
The test system of data set [16] is HT-29. The data set is described as follows: Downregulation of RIPK3 protein level in human HT-29 cells incubated for 9 hrs by Western blot analysis. The format is functional, cell-based. Particulars: dose 0.75-6 µM.
The test system of data set [17] is HT-29. The data set is described as follows: Downregulation of RIPK1 protein level in human HT-29 cells at 6 uM preincubated with Z-VAD-FMK for 2 hrs followed by compound addition and measured after 9 hrs by Western blot analysis. The format is functional, cell-based.
A short description of data set [18]: Acute toxicity in male C57BL/6J mouse assessed as effect on ALP level at 2 g/Kg, IG measured after 72 hrs. The conditions noted are these: in vivo, po, 2000 mg/kg.
Data set [19] deals with HT-29. The data set is described as follows: Upregulation of HSP70 expression in human HT-29 cells at 1.5 uM incubated for 9 hrs by Western blot analysis. The data set is classed as functional, cell-based.
Data set [20] has as its system Mus musculus. Description: Anti-necroptotic activity in TNFalpha/Z-VAD-FMK induced SIRS male C57BL/6J mouse model assessed as reduction in IL6 in liver at 5 to 10 mg/kg, po pre-administered with compound via gavage for 2 hrs followed by […] of Z-VAD-FMK stimulation for 15 mins with subsequent TNF-alpha stimulation for 1 hrs and re-current […] of Z-VAD-FMK stimulation and measured after 8 hrs post SIRS induction by ELISA. The conditions noted are these: dose 5-10 mg/kg, time 10.0 hrs. The data set is classed as functional, organism-based.

Data set [21] deals with Mus musculus. Description: Anti-necroptotic activity in TNFalpha/Z-VAD-FMK induced SIRS male C57BL/6J mouse model assessed as survival rate at 2.5 mg/kg, po pre-administered with compound via gavage for 2 hrs followed by […] of Z-VAD-FMK stimulation for 15 mins with subsequent TNF-alpha stimulation for 1 hrs and re-current […] of Z-VAD-FMK stimulation and measured after 8 hrs post SIRS induction relative to control. The format is functional. Particulars: time 10 hrs.

Data set [22] concerns HT-29. Description: Upregulation of HSP70 protein level in TSZ-induced human HT-29 cells at 10 uM preincubated with compound followed by Z-VAD-FMK, SM164 and TNFalpha stimulation and measured after 6 hrs by Western blot analysis. The data set is classed as functional, cell-based.
Data set [23] concerns HT-29. Description: Downregulation of RIPK1 protein level in human HT-29 cell precipitate at 6 uM measured after 9 hrs by Western blot analysis. The format is functional, cell-based.
Another data set has as its system HeLa. The data set is described as follows: Inhibition of RIPK1 protein expression in RIPK3-deficient human HeLa cells at 0.75 to 6 uM incubated for 9 hrs by Western blot analysis. The format is functional, cell-based. The conditions noted are these: dose 0.75-6 µM.

With `Cn1ccc(-c2ccc(NC(=O)[C@]34CCC(C)(C)C[C@H]3[C@H]3C(=O)C=C5[C@@]6(C)C=C(C#N)C(=O)C(C)(C)[C@@H]6CC[C@@]5(C)[C@]3(C)CC4)cc2)n1`, the result in the data set on Mus musculus [1], in the data set with HT-29 [4], in the data set on HT-29 [6], in the data set on Mus musculus [7], in the data set with Mus musculus [10] and with HT-29 [14] was Active. Besides, the result in the data set on HT-29 [17], in the data set on HT-29 [19] and with Mus musculus [20] was Active. For the same molecule, the Activity entry was “Non-toxic” in data set [2]; “Non-toxic” in data set [3]; “Non-toxic” in data set [9]; “Non-toxic” in [15]; “Dose-dependent-effect” in the data set on HT-29 [16]; “Non-toxic” in data set [18]. Further, the Tmax (commonly the time at which the peak concentration occurs) in [5] turned out to be 4.98 min. The AUC(0-t) – broadly, exposure summed from dosing to a finite time, without extrapolation to infinity – at 24 h in data set [8] is 1080 ng·h/mL; in data set [11], 4640 ng·h/mL. In [12], the inhibition entry was “Dose-dependent-effect”. Besides, the inhibition result (in data set [13]; in the data set with HeLa) was “Active” in each case. Besides, the survival at 2.5 mg/kg in the data set on Mus musculus [21] stood at 35%. Also, the outcome in the data set with HT-29 [22] and with HT-29 [23] was inactive.
